Target: T1, human mAChR M4 (Homo sapiens, UniProt P08173)
T1 construct: expressed in transfected cells
T1 sequence (P08173 1-479): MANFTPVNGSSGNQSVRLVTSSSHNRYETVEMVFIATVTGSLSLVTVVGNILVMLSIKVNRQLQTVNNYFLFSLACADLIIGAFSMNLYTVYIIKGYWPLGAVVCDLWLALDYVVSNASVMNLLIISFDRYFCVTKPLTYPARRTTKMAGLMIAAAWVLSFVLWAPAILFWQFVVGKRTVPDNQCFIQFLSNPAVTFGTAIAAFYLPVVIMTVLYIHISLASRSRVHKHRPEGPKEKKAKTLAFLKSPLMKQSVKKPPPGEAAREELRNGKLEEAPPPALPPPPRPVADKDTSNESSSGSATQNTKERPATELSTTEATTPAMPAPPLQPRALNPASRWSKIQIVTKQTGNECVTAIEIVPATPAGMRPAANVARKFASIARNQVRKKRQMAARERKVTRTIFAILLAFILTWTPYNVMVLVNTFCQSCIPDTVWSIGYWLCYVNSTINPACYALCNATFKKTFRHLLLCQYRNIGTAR
Experiment: mAChR M4 cell-based functional assay (calcium mobilization, CHO-K1 hM4-Gqi5 cells)
Conditions: for Emax at 30 µM: CHO-K1, % ACh maximum at 30 μM, human M4; for EC50: positive allosteric modulator activity, increase in the EC20 acetylcholine response, CHO-K1 hM4-Gqi5 cells, read-out: Human M4 EC50
Outline: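 Fluorescent calcium read-out (Fluo-4 AM, FDSS, 1 Hz) in hM4-Gqi5 CHO-K1 cells, 11-point 1:3 compound series. Agonism scored on compound addition, PAM activity as increase of the 144 s EC20 acetylcholine response, antagonism as decrease of the 230 s EC80 response; four-parameter logistic fits give EC50 and Emax.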

| SMILES | Emax at 30 µM | EC50 | Emax (CHO-K1) |
| --- | --- | --- | --- |
| Cc1cc(C(=O)NCc2ccc3ncnn3c2)cnc1N1CCc2ncccc2C1 [compound 151, 6-(7,8-dihydro-5H-1,6-naphthyridin-6-yl)-5-methyl-N-([1,2,4]triazolo[1,5-a]pyridin-6-ylmethyl)pyridine-3-carboxamide] | 67% | 3250 nM | – |
| [2H]C1([2H])Cc2ncc(Nc3ccncc3C)cc2C([2H])([2H])N1c1nnc(C#N)cc1C [Example 607, 5-methyl-6-(3-((3-methylpyridin-4-yl)amino)-7,8-dihydro-1,6-naphthyridin-6(5H)-yl-5,5,7,7-d4)pyridazine-3-carbonitrile] | 70% | 906 nM | – |
| Cc1cc(C(=O)NCc2ccncc2)nnc1N1CCc2ncc(N3CCCn4nccc43)cc2C1 [Example 490, 6-(3-(6,7-dihydropyrazolo[1,5-a]pyrimidin-4(5H)-yl)-7,8-dihydro-1,6-naphthyridin-6(5H)-yl)-5-methyl-N-(pyridin-4-ylmethyl)pyridazine-3-carboxamide] | 100% | 16 nM | – |
| Cc1ccc(Oc2cnc3c(c2)CN(c2ncc(C#N)cc2C)CC3)c(F)c1 [Example 349, 6-(3-(2-fluoro-4-methylphenoxy)-7,8-dihydro-1,6-naphthyridin-6(5H)-yl)-5-methylnicotinonitrile] | 72% | 1120 nM | – |
| [2H]C1([2H])Cc2ncc(Nc3ccncc3F)cc2C([2H])([2H])N1c1nnc(C#N)c(C)c1C [Example 608, 6-(3-((3-fluoropyridin-4-yl)amino)-7,8-dihydro-1,6-naphthyridin-6(5H)-yl-5,5,7,7-d4)-4,5-dimethylpyridazine-3-carbonitrile] | 83% | 4 nM | – |
| COCc1nc(Cl)c(C)c(N2CCc3ncc(Br)cc3C2)n1 [compound 211, 3-bromo-6-(6-chloro-2-(methoxymethyl)-5-methylpyrimidin-4-yl)-5,6,7,8-tetrahydro-1,6-naphthyridine] | – | 123 nM | 99% |
| Cc1cc(C(=O)NCc2cncs2)nnc1N1CCc2ncc(-c3ccnn3C)cc2C1 [Example 516, 5-methyl-6-(3-(1-methyl-1H-pyrazol-5-yl)-7,8-dihydro-1,6-naphthyridin-6(5H)-yl)-N-(thiazol-5-ylmethyl)pyridazine-3-carboxamide] | 102% | 31 nM | – |
| Cc1cc(C(=O)N2CCOCC2)nnc1N1CCc2ncc(N3CCCn4nccc43)cc2C1 [Example 515, (6-(3-(6,7-dihydropyrazolo[1,5-a]pyrimidin-4(5H)-yl)-7,8-dihydro-1,6-naphthyridin-6(5H)-yl)-5-methylpyridazin-3-yl)(morpholino)methanone] | 107% | 197 nM | – |
| Cc1ccc(-c2cnc3c(c2)CN(c2ncc(C#N)cc2C)CC3)cn1 [compound 187, 5-methyl-6-[3-(6-methyl-3-pyridyl)-7,8-dihydro-5H-1,6-naphthyridin-6-yl]pyridine-3-carbonitrile] | 108% | 138 nM | – |
| Cc1cc(F)ncc1-c1cnc2c(c1)CN(c1ncc(C(=O)NCc3nccs3)cc1C)CC2 [compound 174, 6-[3-(6-fluoro-4-methyl-3-pyridyl)-7,8-dihydro-5H-1,6-naphthyridin-6-yl]-5-methyl-N-(thiazol-2-ylmethyl)pyridine-3-carboxamide] | 98% | 75.8 nM | – |
| Cc1cc2n(n1)CCCN2c1cnc2c(c1)CN(c1ncc(C#N)cc1C)CC2 [Example 385, 5-methyl-6-(3-(2-methyl-6,7-dihydropyrazolo[1,5-a]pyrimidin-4(5H)-yl)-7,8-dihydro-1,6-naphthyridin-6(5H)-yl)nicotinonitrile] | 103% | 40 nM | – |
| Cc1c(C#N)nnc(N2CCc3ncc(Nc4ccccc4Cl)cc3C2)c1C [compound 39, 6-[3-(2-chloroanilino)-7,8-dihydro-5H-1,6-naphthyridin-6-yl]-4,5-dimethyl-pyridazine-3-carbonitrile] | 73% | 239 nM | – |
| Cc1cc(C#N)cnc1N1CCc2ncc(N3CCCn4nc(C5CC5)cc43)cc2C1 [Example 415, 6-(3-(2-cyclopropyl-6,7-dihydropyrazolo[1,5-a]pyrimidin-4(5H)-yl)-7,8-dihydro-1,6-naphthyridin-6(5H)-yl)-5-methylnicotinonitrile] | 72% | 94 nM | – |
| Cc1cc(C)n(-c2cnc3c(c2)CN(c2ncc(C#N)cc2C)CC3)n1 [Example 346, 6-(3-(3,5-dimethyl-1H-pyrazol-1-yl)-7,8-dihydro-1,6-naphthyridin-6(5H)-yl)-5-methylnicotinonitrile] | 88% | 1300 nM | – |
| Cc1cc(C#N)cnc1N1CCc2ncc(N3CCC(C)n4nccc43)cc2C1 (centres unmarked) [Example 386, 5-methyl-6-(3-(7-methyl-6,7-dihydropyrazolo[1,5-a]pyrimidin-4(5H)-yl)-7,8-dihydro-1,6-naphthyridin-6(5H)-yl)nicotinonitrile] | 103% | 76 nM | – |
| Cc1nc(C)c(C)c(N2CCc3ncc(-c4ccc(N5CCC(F)(F)C5)nc4)cc3C2)n1 [compound 228, 3-(6-(3,3-difluoropyrrolidin-1-yl)pyridin-3-yl)-6-(2,5,6-trimethylpyrimidin-4-yl)-5,6,7,8-tetrahydro-1,6-naphthyridine] | 66% | 890 nM | – |
| Cc1nn(C)cc1-c1cnc2c(c1)CN(c1nc(N3CCN(C)CC3)nc(C)c1C)CC2 [compound 275, 3-(1,3-dimethyl-1/-pyrazol-4-yl)-6-(5,6-dimethyl-2-(4-methylpiperazin-1-yl)pyrimidin-4-yl)-5,6,7,8-tetrahydro-1,6-naphthyridine] | 86% | 981 nM | – |
| Cc1cc(C(=O)NC2(C#N)CC2)nnc1N1CCc2ncc(C(F)(F)F)cc2C1 [Example 523, N-(1-cyanocyclopropyl)-5-methyl-6-(3-(trifluoromethyl)-7,8-dihydro-1,6-naphthyridin-6(5H)-yl)pyridazine-3-carboxamide] | 109% | 74 nM | – |
| [2H]C([2H])(NC(=O)c1cc(C)c(N2CCc3ncc(N4CCCn5nccc54)cc3C2)nn1)c1cscn1 [Example 508, 6-(3-(6,7-dihydropyrazolo[1,5-a]pyrimidin-4(5H)-yl)-7,8-dihydro-1,6-naphthyridin-6(5H)-yl)-5-methyl-N-(thiazol-4-ylmethyl-d2)pyridazine-3-carboxamide] | 82% | 13 nM | – |
| Cc1cnccc1Nc1cnc2c(c1)CN(c1nnc(C#N)cc1C)CC2 [Example 619, 5-methyl-6-(3-((3-methylpyridin-4-yl)amino)-7,8-dihydro-1,6-naphthyridin-6(5H)-yl)pyridazine-3-carbonitrile] | 86% | 1020 nM | – |
| Cc1cc(C#N)cnc1N1CCc2ncc(-n3ccnc3)cc2C1 [Example 343, 6-(3-(1H-imidazol-1-yl)-7,8-dihydro-1,6-naphthyridin-6(5H)-yl)-5-methylnicotinonitrile] | 97% | 226 nM | – |
| Cc1nc(Cl)c(C)c(N2CCc3ncc(-c4sc(C)nc4C)cc3C2)n1 [compound 198, 5-[6-(6-chloro-2,5-dimethyl-pyrimidin-4-yl)-7,8-dihydro-5H-1,6-naphthyridin-3-yl]-2,4-dimethyl-thiazole] | 92% | 137 nM | – |

Reference: patent publication US20250230155A1 (Vanderbilt University, priority 2021, published 2025)
